From patent publication US20110111016A1, “NON-DNA BASE-CONTAINING POLYNUCLEOTIDE COMPOSITIONS AND THEIR USE FOR THE MODULATION OF IMMUNE RESPONSES” (priority 2009, published 2011)

What was measured:
Assay type in all cases: cell-based
human TLR5 = biological target: T1, human TLR5 (Homo sapiens, UniProt O60602); test: NF-κB activation (secreted alkaline phosphatase reporter) in HEK293 cells expressing human TLR5; settings: HEK293/hTLR5 cell line; polynucleotide final concentration 10 μg/mL; 16-20 hours
T1 construct: host or cells: HEK293
T1 sequence (O60602 21-858): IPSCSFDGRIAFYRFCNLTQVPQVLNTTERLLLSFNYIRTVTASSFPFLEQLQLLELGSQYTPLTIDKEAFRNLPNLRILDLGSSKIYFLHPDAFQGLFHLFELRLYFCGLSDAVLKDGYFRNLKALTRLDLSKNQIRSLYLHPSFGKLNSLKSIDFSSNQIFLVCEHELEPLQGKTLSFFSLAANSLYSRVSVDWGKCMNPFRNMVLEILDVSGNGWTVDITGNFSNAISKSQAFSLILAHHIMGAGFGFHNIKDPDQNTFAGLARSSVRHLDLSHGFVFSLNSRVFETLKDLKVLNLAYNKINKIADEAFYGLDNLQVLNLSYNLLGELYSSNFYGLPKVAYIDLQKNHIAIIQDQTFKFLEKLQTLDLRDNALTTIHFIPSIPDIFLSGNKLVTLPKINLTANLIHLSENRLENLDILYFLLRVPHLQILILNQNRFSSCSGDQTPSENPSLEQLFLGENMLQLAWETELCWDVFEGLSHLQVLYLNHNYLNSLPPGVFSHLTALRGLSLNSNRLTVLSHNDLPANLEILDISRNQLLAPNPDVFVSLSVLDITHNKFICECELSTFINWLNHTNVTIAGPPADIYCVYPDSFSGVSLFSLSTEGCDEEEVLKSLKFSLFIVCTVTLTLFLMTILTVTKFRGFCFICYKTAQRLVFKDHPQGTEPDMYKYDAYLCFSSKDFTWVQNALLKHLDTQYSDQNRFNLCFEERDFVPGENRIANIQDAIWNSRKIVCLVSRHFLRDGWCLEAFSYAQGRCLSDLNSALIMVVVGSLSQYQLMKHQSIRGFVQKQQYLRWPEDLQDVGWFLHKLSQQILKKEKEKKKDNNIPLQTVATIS
Experimental: (§1) Toll-like receptors (TLR) are known to interact with a number of natural and synthetic molecules that can function as immune adjuvants. Examples of these molecules are Poly (I:C) polynucleotides, lipopolysaccharide and CpG-containing polynucleotides. The interaction of non-DNA base-containing polynucleotides (SEQ ID NOs: 1-3) to interact with TLR and induce down-stream signaling was tested by assessing NF-κB activation in HEK293 cells expressing human TLR2, 3, 4, 5, 7, 8 and 9. TLR engagement was determined by measurement of secreted alkaline phosphatase, under the control of a reporter inducible by NF-κB. Appropriate positive controls were used for each TLR. The non-DNA base-containing polynucleotides were dissolved in sterile water at a concentration of 100 μg/mL, and used at a final concentration of 10 μg/mL. HEK293 cells containing the appropriate TLR and NF-κB reporting system (InvivoGen, San Diego, Calif., USA) were placed in wells of 96 well plates (25,000-50,000 cells, in a final volume of 200 μL medium designed for the detection of NF-κB induced secreted alkaline phosphatase expression), and incubated with non-DNA base-containing polynucleotides or positive controls for 16-20 hours. TLR activating activity was determined by measurement of absorbance at 650 nm wavelength using a Coulter AD340C absorbance detector. The results shown are expressed as Optical Density (OD).

human TLR9 = biological target: T2, human TLR9 (Homo sapiens, UniProt Q9NR96); test: NF-κB activation (secreted alkaline phosphatase reporter) in HEK293 cells expressing human TLR9; settings: HEK293/hTLR9 cell line; polynucleotide final concentration 10 μg/mL; 16-20 hours
T2 construct: host or cells: HEK293
T2 sequence (Q9NR96 26-1032): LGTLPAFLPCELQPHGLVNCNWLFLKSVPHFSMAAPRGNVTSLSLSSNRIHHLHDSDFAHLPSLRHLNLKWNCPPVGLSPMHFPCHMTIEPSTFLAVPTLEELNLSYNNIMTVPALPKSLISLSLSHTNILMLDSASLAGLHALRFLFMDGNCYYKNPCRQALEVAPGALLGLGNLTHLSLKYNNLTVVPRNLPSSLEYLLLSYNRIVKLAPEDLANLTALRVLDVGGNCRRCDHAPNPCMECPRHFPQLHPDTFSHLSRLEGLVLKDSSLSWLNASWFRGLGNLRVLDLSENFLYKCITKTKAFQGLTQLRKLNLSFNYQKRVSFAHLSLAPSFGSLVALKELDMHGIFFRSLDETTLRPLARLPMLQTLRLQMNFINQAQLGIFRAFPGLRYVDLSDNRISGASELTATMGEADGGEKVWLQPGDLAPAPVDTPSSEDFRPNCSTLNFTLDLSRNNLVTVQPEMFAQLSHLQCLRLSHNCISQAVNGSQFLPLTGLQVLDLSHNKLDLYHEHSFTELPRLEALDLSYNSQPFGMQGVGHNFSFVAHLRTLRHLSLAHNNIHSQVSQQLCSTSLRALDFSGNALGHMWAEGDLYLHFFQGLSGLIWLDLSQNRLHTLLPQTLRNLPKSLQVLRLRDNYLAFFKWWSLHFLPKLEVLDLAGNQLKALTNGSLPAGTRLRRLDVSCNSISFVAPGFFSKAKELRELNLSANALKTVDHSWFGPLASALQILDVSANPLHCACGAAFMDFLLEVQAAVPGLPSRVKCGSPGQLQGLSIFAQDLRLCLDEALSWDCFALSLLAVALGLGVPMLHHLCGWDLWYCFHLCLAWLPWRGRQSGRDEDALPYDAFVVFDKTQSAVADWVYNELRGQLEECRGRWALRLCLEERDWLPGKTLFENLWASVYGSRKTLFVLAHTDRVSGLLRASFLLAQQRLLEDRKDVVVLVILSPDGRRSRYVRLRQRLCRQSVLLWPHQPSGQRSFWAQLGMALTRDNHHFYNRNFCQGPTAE
Experimental: as §1, with “The non-DNA base-containing polynucleotides were dissolved in sterile water at a concentration of 100 μg/mL, and used at a final concentration of 10 μg/mL.” left out

human TLR4 = biological target: T3, human TLR4 (Homo sapiens, UniProt O00206+Q9Y6Y9); test: NF-κB activation (secreted alkaline phosphatase reporter) in HEK293 cells expressing human TLR4; settings: HEK293/hTLR4 cell line; polynucleotide final concentration 10 μg/mL; 16-20 hours
T3 construct: host or cells: HEK293
T3 sequence (Q9Y6Y9 17-160): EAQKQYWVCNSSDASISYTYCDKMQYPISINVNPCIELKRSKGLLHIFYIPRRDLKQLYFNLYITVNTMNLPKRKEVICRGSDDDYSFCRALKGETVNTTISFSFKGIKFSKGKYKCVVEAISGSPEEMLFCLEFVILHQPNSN
T3 sequence (O00206 24-839): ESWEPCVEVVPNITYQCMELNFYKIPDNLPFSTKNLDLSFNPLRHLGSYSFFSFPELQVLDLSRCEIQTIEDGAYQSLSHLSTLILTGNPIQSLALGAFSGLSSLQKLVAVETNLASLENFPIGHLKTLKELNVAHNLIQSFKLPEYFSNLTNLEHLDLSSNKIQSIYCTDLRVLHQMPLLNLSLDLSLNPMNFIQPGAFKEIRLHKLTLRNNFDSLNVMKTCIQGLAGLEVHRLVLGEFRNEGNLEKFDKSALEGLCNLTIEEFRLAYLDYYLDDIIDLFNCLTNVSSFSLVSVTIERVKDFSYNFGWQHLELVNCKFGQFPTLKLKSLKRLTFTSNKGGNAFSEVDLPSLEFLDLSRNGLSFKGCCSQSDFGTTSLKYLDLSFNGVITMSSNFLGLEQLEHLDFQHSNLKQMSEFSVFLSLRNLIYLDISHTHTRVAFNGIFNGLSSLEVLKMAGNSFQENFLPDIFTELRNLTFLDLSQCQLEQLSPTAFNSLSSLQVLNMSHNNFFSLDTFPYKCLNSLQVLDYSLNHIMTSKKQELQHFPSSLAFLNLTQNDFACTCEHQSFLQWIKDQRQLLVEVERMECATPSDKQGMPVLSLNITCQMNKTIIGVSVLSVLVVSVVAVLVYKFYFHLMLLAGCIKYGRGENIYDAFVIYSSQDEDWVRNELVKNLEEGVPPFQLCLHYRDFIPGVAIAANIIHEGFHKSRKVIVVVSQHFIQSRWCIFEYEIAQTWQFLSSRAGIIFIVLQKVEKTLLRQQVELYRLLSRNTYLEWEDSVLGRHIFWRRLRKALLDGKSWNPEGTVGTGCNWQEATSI
Experimental: as §1

Row | Substance | TLR activation, Optical Density at 650 nm, hTLR5 (human TLR5) | TLR activation, Optical Density at 650 nm, hTLR9 (human TLR9) | TLR activation, Optical Density at 650 nm, hTLR4 (human TLR4)
1 | IIGTII [SEQ ID NO: 3] | 0.155 | 0.083 | 0.050
2 | NebGGTGNeb (DNA NGGTGN; Nebularine at both ends, sugar and linkages not given here, further chemistry not given here) [SEQ ID NO: 1, 5′-OH, 3′-OH non-DNA base-containing polynucleotide] | 0.158 | 0.074 | 0.050
3 | UUGTUU [SEQ ID NO: 2] | 0.143 | 0.090 | 0.052
